Measurements: ChEMBL document CHEMBL3885861, “Open TG-GATES”

Organism: Rattus norvegicus
Test: Open TG-GATES - Regimen: Daily Repeat
Assay type: toxicity, organism-based, Sprague-Dawley
Design: regimen Daily Repeat, gender Male, age 6 weeks
Conditions: in vivo, po, route gavage; for APTT / Bas / Eos / Fbg / Ht / Lym / MCHC / MCV / Mono / RBC / Ret / WBC / Hb / Neu: tissue Blood; for KIDNEY_L / KIDNEY_R / KIDNEY_TOTAL: tissue Kidney; for ALP / ALT / AST / BUN / CRE / Ca / Cl / DBIL / GLC / IP / K / PL / RALB / TBIL / TC / TG / TP / gamma-GTP: tissue Plasma
[1] = 0 mg/kg, 72 h, dose level Control, time 3 day
[2] = 0 mg/kg, […], dose level Control, time 7 day
[3] = 0 mg/kg, […], dose level Control, time 14 day
[4] = 0 mg/kg, […], dose level Control, time 28 day
[5] = 20 mg/kg, 72 h, dose level Low, time 3 day
[6] = 20 mg/kg, […], dose level Low, time 7 day
[7] = 20 mg/kg, […], dose level Low, time 14 day
[8] = 20 mg/kg, […], dose level Low, time 28 day
[9] = 60 mg/kg, 72 h, dose level Middle, time 3 day

CCCCC1C(=O)N(c2ccccc2)N(c2ccccc2)C1=O [PHENYLBUTAZONE]
TERMINAL_BW [1]: 239.7 g | APTT [1]: 16.9 s | Bas [1]: 0% | Eos [1]: 1% | Fbg [1]: 233.4 mg/dL | Ht [1]: 42.7% | Lym [1]: 81.6% | MCHC [1]: 33.3% | MCV [1]: 63.6 fL | Mono [1]: 5.6% | RBC [1]: 672.8 x10_4/ul | Ret [1]: 7.3% | WBC [1]: 131.2 x10_2/uL | KIDNEY_L [1]: 1.1 g | KIDNEY_R [1]: 1.1 g | KIDNEY_TOTAL [1]: 2.2 g | ALP [1]: 868 IU/L | ALT [1]: 35.2 IU/L | AST [1]: 61 IU/L | BUN [1]: 17.4 mg/dL | CRE [1]: 0.6 mg/dL | Ca [1]: 10.6 mg/dL | Cl [1]: 105 meq/L | DBIL [1]: 0 mg/dL | GLC [1]: 195.2 mg/dL | IP [1]: 9 mg/dL | K [1]: 5.1 meq/L | PL [1]: 170.6 mg/dL | RALB [1]: 4 g/dL | TBIL [1]: 0.3 mg/dL | TC [1]: 86.6 mg/dL | TG [1]: 136.4 mg/dL | TP [1]: 6.1 g/dL | gamma-GTP [1]: 1.6 IU/L | TERMINAL_BW [2]: 268.9 g | TERMINAL_BW [3]: 318.1 g | TERMINAL_BW [4]: 373 g | APTT [2]: 15.7 s | Bas [2]: 0% | Eos [2]: 0.8% | Fbg [2]: 242.2 mg/dL | Hb [2]: 13.9 g/dL | Ht [2]: 42.1% | Lym [2]: 84.2% | MCHC [2]: 33.1% | MCV [2]: 62.4 fL | Mono [2]: 6.6% | Neu [2]: 8.8% | RBC [2]: 674.8 x10_4/ul | Ret [2]: 5.4% | WBC [2]: 155.4 x10_2/uL | APTT [3]: 16.4 s | Bas [3]: 0% | Eos [3]: 0.6% | Fbg [3]: 227.8 mg/dL | Hb [3]: 15 g/dL | Ht [3]: 44.8% | Lym [3]: 84.8% | MCHC [3]: 33.6% | MCV [3]: 62.7 fL | Mono [3]: 4.2% | Neu [3]: 10.2% | RBC [3]: 714.8 x10_4/ul | Ret [3]: 4.4% | WBC [3]: 131.9 x10_2/uL | APTT [4]: 16 s | Bas [4]: 0% | Eos [4]: 1% | Fbg [4]: 233 mg/dL | Hb [4]: 15.7 g/dL | Ht [4]: 46.9% | Lym [4]: 82.8% | MCHC [4]: 33.4% | MCV [4]: 56.2 fL | Mono [4]: 4.2% | RBC [4]: 835.8 x10_4/ul | Ret [4]: 2.1% | WBC [4]: 151.8 x10_2/uL | KIDNEY_L [2]: 1.2 g | KIDNEY_R [2]: 1.1 g | KIDNEY_TOTAL [2]: 2.3 g | KIDNEY_L [3]: 1.2 g | KIDNEY_R [3]: 1.2 g | KIDNEY_TOTAL [3]: 2.3 g | KIDNEY_L [4]: 1.4 g | KIDNEY_R [4]: 1.4 g | KIDNEY_TOTAL [4]: 2.7 g | ALP [2]: 919.6 IU/L | ALT [2]: 35.6 IU/L | AST [2]: 69 IU/L | BUN [2]: 18.8 mg/dL | CRE [2]: 0.5 mg/dL | Ca [2]: 10.6 mg/dL | Cl [2]: 105.4 meq/L | DBIL [2]: 0.006 mg/dL | GLC [2]: 210.8 mg/dL | IP [2]: 8.9 mg/dL | K [2]: 4.9 meq/L | RALB [2]: 3.9 g/dL | TBIL [2]: 0.3 mg/dL | TC [2]: 74.4 mg/dL | TG [2]: 112.6 mg/dL | TP [2]: 6.6 g/dL | gamma-GTP [2]: 1.8 IU/L | ALP [3]: 748 IU/L | ALT [3]: 31.4 IU/L | AST [3]: 57.8 IU/L | BUN [3]: 19.6 mg/dL | CRE [3]: 0.6 mg/dL | Ca [3]: 10.5 mg/dL | Cl [3]: 108 meq/L | DBIL [3]: 0.016 mg/dL | GLC [3]: 207.4 mg/dL | IP [3]: 7.9 mg/dL | K [3]: 4.7 meq/L | PL [3]: 160.4 mg/dL | RALB [3]: 4 g/dL | TBIL [3]: 0.3 mg/dL | TC [3]: 79.2 mg/dL | TG [3]: 177.6 mg/dL | TP [3]: 6.2 g/dL | gamma-GTP [3]: 1.2 IU/L | ALP [4]: 692.8 IU/L | ALT [4]: 33 IU/L | AST [4]: 62 IU/L | BUN [4]: 20.2 mg/dL | CRE [4]: 0.6 mg/dL | Ca [4]: 10.1 mg/dL | Cl [4]: 107.6 meq/L | DBIL [4]: 0.008 mg/dL | GLC [4]: 200 mg/dL | IP [4]: 6.8 mg/dL | K [4]: 4.5 meq/L | RALB [4]: 3.9 g/dL | TBIL [4]: 0.3 mg/dL | TC [4]: 61 mg/dL | TG [4]: 170.2 mg/dL | TP [4]: 6.4 g/dL | gamma-GTP [4]: 2 IU/L | TERMINAL_BW [5]: 234.1 g | APTT [5]: 16.6 s | Bas [5]: 0% | Eos [5]: 1% | Fbg [5]: 220 mg/dL | Ht [5]: 42.6% | Lym [5]: 76.6% | MCHC [5]: 33.4% | MCV [5]: 66.3 fL | Mono [5]: 8.4% | Neu [5]: 14% | RBC [5]: 643.4 x10_4/ul | Ret [5]: 7.4% | WBC [5]: 137.6 x10_2/uL | KIDNEY_L [5]: 1 g | KIDNEY_R [5]: 1 g | KIDNEY_TOTAL [5]: 2 g | ALP [5]: 895.4 IU/L | ALT [5]: 37.2 IU/L | AST [5]: 63.2 IU/L | BUN [5]: 16 mg/dL | CRE [5]: 0.6 mg/dL | Ca [5]: 10.4 mg/dL | Cl [5]: 106.4 meq/L | DBIL [5]: 0 mg/dL | GLC [5]: 195.6 mg/dL | IP [5]: 8.1 mg/dL | K [5]: 4.9 meq/L | PL [5]: 170.4 mg/dL | RALB [5]: 4 g/dL | TBIL [5]: 0.3 mg/dL | TC [5]: 86.2 mg/dL | TG [5]: 125.8 mg/dL | TP [5]: 6 g/dL | gamma-GTP [5]: 1.6 IU/L | TERMINAL_BW [6]: 263.4 g | TERMINAL_BW [7]: 327.9 g | TERMINAL_BW [8]: 390.6 g | APTT [6]: 16.5 s | Bas [6]: 0% | Eos [6]: 0.8% | Fbg [6]: 229.8 mg/dL | Hb [6]: 14.3 g/dL | Ht [6]: 42.8% | Lym [6]: 85.2% | MCHC [6]: 33.5% | MCV [6]: 64.2 fL | Mono [6]: 5% | Neu [6]: 8.8% | RBC [6]: 668 x10_4/ul | Ret [6]: 5.4% | APTT [7]: 16.2 s | Bas [7]: 0% | Eos [7]: 0.8% | Fbg [7]: 226.8 mg/dL | Hb [7]: 14.8 g/dL | Ht [7]: 44.2% | Lym [7]: 85% | MCHC [7]: 33.5% | MCV [7]: 62.7 fL | Mono [7]: 4.4% | Neu [7]: 10% | RBC [7]: 705.2 x10_4/ul | Ret [7]: 5.1% | WBC [7]: 153 x10_2/uL | APTT [8]: 15.5 s | Bas [8]: 0% | Eos [8]: 0.4% | Fbg [8]: 239.4 mg/dL | Hb [8]: 15.3 g/dL | Ht [8]: 45.7% | Lym [8]: 85.4% | MCHC [8]: 33.5% | MCV [8]: 58.2 fL | Mono [8]: 4% | RBC [8]: 786.8 x10_4/ul | Ret [8]: 2.4% | WBC [8]: 138.6 x10_2/uL | KIDNEY_L [6]: 1.2 g | KIDNEY_R [6]: 1.2 g | KIDNEY_TOTAL [6]: 2.4 g | KIDNEY_L [7]: 1.3 g | KIDNEY_R [7]: 1.3 g | KIDNEY_TOTAL [7]: 2.6 g | KIDNEY_L [8]: 1.4 g | KIDNEY_R [8]: 1.4 g | KIDNEY_TOTAL [8]: 2.7 g | ALP [6]: 882.4 IU/L | ALT [6]: 30 IU/L | AST [6]: 61.4 IU/L | BUN [6]: 18.6 mg/dL | CRE [6]: 0.5 mg/dL | Ca [6]: 10.5 mg/dL | Cl [6]: 105.8 meq/L | DBIL [6]: 0 mg/dL | GLC [6]: 193.6 mg/dL | IP [6]: 7.7 mg/dL | K [6]: 5.2 meq/L | RALB [6]: 4 g/dL | TBIL [6]: 0.3 mg/dL | TC [6]: 77 mg/dL | TG [6]: 119 mg/dL | TP [6]: 6.7 g/dL | gamma-GTP [6]: 1.4 IU/L | ALP [7]: 735.2 IU/L | ALT [7]: 27.6 IU/L | AST [7]: 57.2 IU/L | BUN [7]: 20.4 mg/dL | CRE [7]: 0.6 mg/dL | Ca [7]: 10.8 mg/dL | Cl [7]: 107.6 meq/L | DBIL [7]: 0.002 mg/dL | GLC [7]: 201 mg/dL | IP [7]: 8.2 mg/dL | K [7]: 5 meq/L | RALB [7]: 4 g/dL | TBIL [7]: 0.3 mg/dL | TC [7]: 71 mg/dL | TG [7]: 165.4 mg/dL | TP [7]: 6.2 g/dL | gamma-GTP [7]: 1.2 IU/L | ALP [8]: 633.6 IU/L | ALT [8]: 31.6 IU/L | AST [8]: 57.8 IU/L | BUN [8]: 21 mg/dL | CRE [8]: 0.6 mg/dL | Ca [8]: 10.5 mg/dL | Cl [8]: 106.8 meq/L | DBIL [8]: 0.012 mg/dL | GLC [8]: 193.2 mg/dL | IP [8]: 7.3 mg/dL | K [8]: 4.3 meq/L | RALB [8]: 4.2 g/dL | TBIL [8]: 0.3 mg/dL | TC [8]: 65.2 mg/dL | TG [8]: 208.8 mg/dL | TP [8]: 6.5 g/dL | gamma-GTP [8]: 1.8 IU/L | TERMINAL_BW [9]: 231.9 g | APTT [9]: 17.3 s | Bas [9]: 0%
